# Paper PMC11825922, “Molecular interactions, structural effects, and binding affinities between silver ions (Ag^+) and amyloid beta (Aβ) peptides” (Scientific Reports, 2025)
# Read-outs that look alike come from different tables or passages of the source.
# Columns and labels:
# [1] = target: Aβ peptides; details: cited from earlier work
# [2] = target: T1, wt Aβ40 peptide (Homo sapiens, UniProt P05067); assay: Tyr10 intrinsic fluorescence quenching titration with AgNO3, Morrison equation fit; assay type: binding; details: 20 mM MES buffer, 20 °C, read-out: Mean KD^App value
# T1 construct: Aβ(1–40) and Aβ(1–42), here abbreviated Aβ40 and Aβ42; purchased AlexoTech AB (Umeå, Sweden)
# Method: A Jobin Yvon Horiba Fluorolog 3 fluorescence spectrophotometer (Longjumeau, France) was used to record the fluorescence emission intensity at 305 nm (excitation wavelength 276 nm) for samples of 10 µM Aβ peptide in 20 mM MES buffer, using a quartz cuvette with 4 mm path length at 20 °C. Measurements were carried out at pH 7.2 for different Aβ variants, i.e. Aβ40, Aβ40(NoHis) mutant, Aβ40(H6A) mutant, and Aβ(4–40). For Aβ40, measurements were carried out also at pH 5.3, and at pH 7.2 in the presence of 50 mM SDS detergent. AgNO3 was titrated to the samples using stock solutions of 1 mM, 2 mM, and 10 mM. The measured tyrosine fluorescence intensities were plotted against the concentration of Ag^+ ions, and dissociation constants were evaluated by fitting the data curves to Eq. (1), i.e. the Morrison Equation [94]:1 I=I0+I∞-I0/2·Aβ·KD+Ag+Aβ-KD+Ag+Aβ^2-4·Ag·Aβ
# Here, I0 is the initial fluorescence intensity with no added Ag^+ ions, I∞ is the steady-state intensity at the end of the titration, [Ag] is the concentration of added Ag^+ ions, KD is the dissociation constant, and [Aβ] is the concentration of Aβ peptide. […] Adding a linear term for the fluorescence quenching effect of free Ag^+ ions was considered unnecessary. […]
# It is previously known that Ag^+ ions can quench the intrinsic fluorescence of amino acids such as tyrosines, including the Tyr10 residue in Aβ peptides. […]
# [3] = target: T2, Aβ40 peptide (Homo sapiens, UniProt P05067); assay: CD spectroscopy on Aβ secondary structure; details: 10 µM Aβ40, 20 mM phosphate buffer pH 7.3, 16–256 µM AgNO3, 20 °C
# T2 construct: Aβ(1–40) and Aβ(1–42), here abbreviated Aβ40 and Aβ42; purchased AlexoTech AB (Umeå, Sweden)
# Method: Circular dichroism (CD) spectroscopy was performed with a Chirascan CD instrument (Applied Photophysics Ltd., U.K.) using a quartz cuvette with 2 mm pathlength containing 600 µL of 10 µM Aβ40 peptide in 20 mM phosphate buffer, pH 7.3. CD spectra were recorded at 20 °C between 190 and 260 nm, with 0.5 nm step size. One sample contained only Aβ40 in buffer, while another sample contained also 50 mM SDS detergent, in order to mimic a membrane environment. To both samples, AgNO3 was added in steps of 16 µM, 56 µM, and 256 µM. The Chirascan Pro-Data v.4.4.1 software (Applied Photophysics Ltd., U.K.) was used to process the recorded spectra with an eight points smoothing filter (Savitzky-Golay).
# Figure 3 CD spectra of 10 μM Aβ40 peptide in 20 mM phosphate buffer, pH 7.3. AgNO3 was titrated to the peptide, either in (A): buffer only, or (B): with 50 mM SDS present. Black: Aβ40 in buffer. Orange: + 50 mM SDS (in B only). Red: + 16 µM AgNO3. Green: + 56 µM AgNO3. Blue: + 256 µM AgNO3.
# [4] = target: T3, Aβ40 peptide fibrils (Homo sapiens, UniProt P05067); assay: AFM imaging of Aβ40 aggregates after 72 h incubation; details: 30 µM AgNO3, 10 µM Aβ40, 72 h, 37 °C, 5 mM MES pH 7.3
# T3 construct: Aβ(1–40) and Aβ(1–42), here abbreviated Aβ40 and Aβ42; purchased AlexoTech AB (Umeå, Sweden)
# Method: Samples for AFM imaging were produced by incubating 10 µM Aβ40 peptides in 5 mM MES buffer, pH 7.3, for 72 h at 37 °C with continuous shaking at 350 rpm together with different amounts of AgNO3, i.e. 0 µM; 2.5 µM; 5 µM; and 30 µM (corresponding to Ag^+:Aβ ratios of 0:1; 1:4; 1:2; and 3:1, respectively). The incubated samples were placed as 1 µL droplets on fresh silicon wafers (Siegert Wafer GmbH, Germany). After 2 min, 10 µL of Milli-Q water was added to the droplets, and then a lint-free wipe was used to remove all excess fluid. Next, the wafers were left to air-dry in a container, covered to protect from dust, and later the same day AFM images were recorded. A neaSNOM AFM unit (Neaspec GmbH, Germany) was used, running in tapping mode (Ω: 280 kHz, tapping amplitude 50–55 nm) and equipped with Pt/Ir-coated monolithic ARROW-NCPt Si tips (NanoAndMore GmbH, Germany) where the tip radius was less than 10 nm. Both topographic and mechanical phase images were recorded for 2.5 × 2.5 µm scanning areas (pixel size 200 × 200) with a scan speed of 2.5 ms/pixel. The images were minimally processed to perform basic plane levelling using the Gwyddion software.
# Figure 4 AFM images for 10 µM Aβ40 peptides together with different concentrations of AgNO3, incubated with agitation for 72 h at 37 °C in 5 mM MES buffer, pH 7.3. (A) 0 µM AgNO3; (B) 2.5 µM AgNO3; (C) 5 µM AgNO3; (D) 30 µM AgNO3. […]
# [5] = target: T4, Aβ42 oligomers (Homo sapiens, UniProt P05067); assay: BN-PAGE analysis of SDS-stabilized Aβ42 oligomers; details: 10, 100, 500 µM AgNO3, 100–120 µM Aβ42, 0.2% SDS, 37 °C 24 h
# T4 construct: Synthetic lyophilized wildtype (wt) Aβ(1–42) peptide, abbreviated Aβ42; purchased JPT Peptide Technologies GmbH (Germany); host or cells: chemical synthesis
# Method: (§1) The Aβ42 monomers were then used to prepare SDS-stabilized Aβ42 oligomers of approximately tetrameric size, using a previously published protocol[83] with the following modifications: the oligomers were prepared in D2O, at four-fold lower peptide concentration, and without the original dilution step[85]. The reaction mixture (100–120 μM Aβ42 in D2O-based PBS, containing 0.2% (6.9 mM) SDS) was incubated at 37 °C for 24 h together with either 0, 10, 100, or 500 µM AgNO3, respectively, and then flash-frozen in liquid N2 and stored at –20 °C for later analysis.
# Homogeneous solutions of SDS-stabilized Aβ42 oligomers, prepared as described in Section “Preparation of Aβ42 oligomers” with either 0, 10, 100, or 500 µM silver nitrate, were analyzed with BN-PAGE using the Invitrogen system (ThermoFisher Scientific, USA). For this purpose, 4–16% Bis–Tris Novex gels (ThermoFisher Scientific, USA) were loaded with 10 μL of samples containing either Aβ42 monomers or Aβ42 oligomers with increasing concentrations of silver, calibrated against the Amersham High Molecular Weight calibration kit for native electrophoresis (GE Healthcare, USA). The gel was first run at 4 °C for 90 min and then stained with the Pierce Silver Staining kit according to the manufacturer’s instructions (ThermoFisher Scientific, USA). […]
# [6] = target: T4, Aβ42 oligomers; assay: FTIR spectroscopy of SDS-stabilized Aβ42 oligomers; details: 0–500 µM AgNO3; FTIR with BN-PAGE
# Method: as §1
# Fourier-transform infrared (FTIR) spectra of SDS-stabilized Aβ42 oligomers (prepared as described in Section “Preparation of Aβ42 oligomers” with 0–500 µM AgNO3) were recorded in transmission mode on a Tensor 37 FTIR spectrometer (Bruker Optik GmbH., Germany) equipped with a […] and a liquid nitrogen-cooled MCT detector. The unit was continuously purged with dry air during the measurements. […] The sample shuttle allowed sample and reference spectra to be recorded without opening the chamber. FTIR spectra were recorded at room temperature in the 1900–800 cm^–1 range, using 6 mm aperture, 2 cm^–1 resolution, a zero-filling factor of two, and 300 scans for both background and sample spectra. […] All spectra were analyzed and plotted using the OPUS 5.5 software. Second derivatives were calculated with a 17 cm^–1 smoothing factor. […]
# T1 sequence (P05067 672-711 limits assumed): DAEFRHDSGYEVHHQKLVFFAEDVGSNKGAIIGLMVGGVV
# T4 sequence (P05067 672-713 limits assumed): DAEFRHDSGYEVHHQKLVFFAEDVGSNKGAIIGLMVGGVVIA
# T3 sequence (P05067 672-711 limits assumed): as the sequence (P05067 672-711 limits assumed) above
# T2 sequence (P05067 672-711 limits assumed): as above
molecule,measurement,setting,value
[Cu+2] [Cu^2+],Binding affinity,[1],sub-micromolar
same,Kd,"[1]; fluorescence measurements, read-out: Binding affinity for the Aβ·Cu^2+ complex, corrected for buffer effects",~0.001 µM
[Ni+2] [Ni^2+],Kd,[1]; read-out: Binding affinity,1 to 50 µM
[Zn+2] [Zn^2+],Kd,[1]; read-out: Binding affinity,1 to 50 µM
monovalent silver ions (Ag^+),Kd,[2]; Aβ40 pH 7.2 + 50 mM SDS,25 µM
same,Kd,"[2]; Aβ40 pH 7.2, 10 µM peptide",25 µM
same,Effect on Aβ40 secondary structure (CD),[3],slightly increased β-sheet structure
same,Effect on Aβ40 fibril morphology (AFM),[4],much more tangled together
same,"Average sizes, amounts and size distributions of Aβ42 oligomers versus without silver",[5],approximately the same
same,"Effect on size, secondary structure, β-sheet planarity and number of strands of Aβ42 oligomers",[6],no significant effect
